The text below walks through data of patent US20100022481A1, “Drug Carriers, Their Synthesis, and Methods of Use Thereof” (priority 2006, published 2010).

The test system of series [1] is rat mandible. Kind of series: Bilateral rat mandible model, bone growth and inflammation, histomorphometry. It is filed as in vivo, Female Sprague Dawley rats. Particulars: for new bone growth / bone anabolic effect (in words): one injection at rat mandible; for New Bone Area (mm^2 ± SEM) / New Bone Width-1 (mm ± SEM) / New Bone Width-3 (mm ± SEM): Table 1, pairs tested on contralateral sides.
Text: Specifically, a bilateral rat mandible model was used with test and control samples on contralateral sides. […] The rats were euthanized at 24 days and evaluated histomorphometrically at 24 days.

Series [2] can be described thus: Phase solubility of dexamethasone or PGE1 in the presence of ALN-CD.
Experimental: The experiments were carried out in triplicate. Tubes containing the solutions were sealed and shaken at 25° C. for 3 days. Suspensions were then filtered using a syringe through 0.22 μm filter. The concentration of dexamethasone or PGE1 in the filtrate was determined by HPLC equipped with a UV detector. For dexamethasone, 10 μg/ml fluorometholone was used as the internal standard.
The conditions for detecting dexamethasone were as follows: chromatographic column: Agilent C18 reverse-phase (4.6×250 mm, 5 μm; Santa Clara, Calif.); mobile phase: acetonitrile-water (40:60, V/V) at a flow rate of 1 ml/min; UV detection at 240 nm.
The conditions for detecting PGE1 were as follows: chromatographic column: Agilent C18 reverse-phase (4.6×250 mm, 5 μm); mobile phase: acetonitrile-0.01M KH2PO4 (42:58, v/v) at a flow rate of 1 ml/minute; UV detection at 205 nm.
Series [3] is described as follows: Binding potential of ALN-CD on HA. Particulars: rhodamine B label; 10 minutes with HA at room temperature, washed with H2O 5-10 times. As to the method: 20 mg rhodamine B labeled ALN-CD or CD and 1 mg rhodamine B were dissolved in 0.5 ml water separately, and 100 mg of hydroxyapatite (HA) was added. The mixture was then allowed to stir gently for 10 minutes at room temperature. HA was recovered by centrifugation (10,000 rpm, 2 minutes), then washed with H2O 5-10 times to remove unbound compounds. The HA was allowed to dry under vacuum at room temperature.

The mark [4] stands for this setting: 50 μl of 400 mg/mL ALN-CD or 50 μl of 81 mg/ml ALN.
Setting [5] is: one injection, contralateral sides, 24 days.

Consider `CCCCC[C@H](O)/C=C/[C@H]1[C@H](O)CC(=O)[C@@H]1CCCCCCC(=O)O` [PGE1, prostaglandin E1], for which, in series [1] (24 days), the “new bone growth / bone anabolic effect (in words)” value was “negligible”.

For `NCCCC(O)(P(=O)(O)O)P(=O)(O)O` [alendronate], in series [1] (setting [4]), the “cases with new bone on distant areas of the mandible (e.g., the medial surface)” value is 8 of 8 and the “cases with new bone on the lateral surface of the mandible (location of injection)” value is listed as 5 of 8. In addition, in series [1] (24 days), the “New Bone Area (mm^2 ± SEM)” value is listed as 0.61 ± 0.12 mm^2, the “New Bone Width-1 (mm ± SEM)” value is on record as 0.14 ± 0.05 mm, the “New Bone Width-3 (mm ± SEM)” value was 0.24 ± 0.11 mm and the “new bone growth / bone anabolic effect (in words)” value is reported as “moderate bone anabolic effect”. For the same compound, the new bone area in series [1] (equivalent amounts of ALN: 50 μl of 400 mg/mL ALN-CD or 50 μl of 81 mg/ml ALN) worked out at 0.61 ± 0.12 mm^2.

Take `C[C@@H]1C[C@H]2[C@@H]3CCC4=CC(=O)C=C[C@]4(C)[C@@]3(F)[C@@H](O)C[C@]2(C)[C@@]1(O)C(=O)CO` [dexamethasone]: the “aqueous solubility as a function of the concentration of ALN-CD” value in series [2] (ALN-CD 0 to 10 mM, 25° C., 3 days) is given as “increases”. For the same compound, the “apparent 1:1 stability constant Kc” value in series [2] (complex with ALN-CD, water, 25° C.) came to 2570 M⁻¹. In series [2] (with ALN-CD), the “solubility diagram type according to Higuchi and Connors” value was “AL type”.

As for `CCN(CC)c1ccc2c(-c3ccccc3C(=O)O)c3ccc(=[N+](CC)CC)cc-3oc2c1.[Cl-]` [rhodamine B], in series [3], the “color of HA after washings (binding to the HA surface)” value is recorded as “disappeared”.

As for hydroxypropyl(HP)-β-CD [HP-β-CD], in series [1] (24 days), the “New Bone Area (mm^2 ± SEM)” value was 0.25 ± 0.08 mm^2, the “New Bone Width-1 (mm ± SEM)” value came to 0.05 ± 0.02 mm and the “New Bone Width-3 (mm ± SEM)” value amounted to 0.19 ± 0.11 mm. In series [1] (setting [5]), the “increase in new bone width” value was determined as 0.07±0.10 mm and the “percentage of osteoblasts on the lateral periosteal surface” value worked out at 7.3%.
